Results published in patent publication US6887896B1, “7-[(7-Alkoxy)-chrom-3-en-6-yl]-heptatrienoic acid and 7-[(3-alkoxy)-5,6-dihydronaphthalen-2-yl]-heptatrienoic acid derivatives having serum glucose reducing activity” (Allergan, Inc., priority 2003, dated 2005).

System: ob/ob mice
Experiment: serum glucose, triglycerides and T4 in ob/ob mice, drug mixed in control diet over 7 days
Format: in vivo
Conditions: 30 mg/kg per day in diet; for Glucose Day 0 / Triglycerides Day 0: day 0 (pre-treatment)

CCOc1c(\C(C)=C/C=C/C(C)=C/C(=O)O)cc2c(c1Cl)OC(C)(C)C=C2C(C)C [Compound 50, 7-(8-Chloro-4-isopropyl-7-ethoxy-2,2-dimethyl-2H-chromen-6-yl)-3-methyl-octa-2E,4E,6Z-trienoic acid]
Glucose Day 3, 3 h: 209 mg/dL
Glucose Day 6, 3 h: 237 mg/dL
T4 Day 7: 4.5 µg/dL
Triglycerides Day 3, 3 h: 90 ± 33 mg/dL
Glucose Day 0: 288 mg/dL
Triglycerides Day 0: 122 mg/dL

CCOc1c(\C(C)=C(F)/C=C/C(C)=C/C(=O)O)cc2c(c1Cl)OC(C)(C)C=C2C(C)C [Compound 172, 7-(8-Chloro-4-isopropyl-7-ethoxy-2,2-dimethyl-2H-chromen-6-yl)-6-fluoro-3-methyl-octa-2E,4E,6E-trienoic acid]
Glucose Day 3, 3 h: 193 mg/dL
Glucose Day 6, 3 h: 206 mg/dL
T4 Day 7: 4.5 µg/dL
Triglycerides Day 3, 3 h: 68 ± 22 mg/dL
Glucose Day 0: 292 mg/dL
Triglycerides Day 0: 107 mg/dL
